Test results from PMC7915765, “Biochemical Characterization, Specificity and Inhibition Studies of HTLV-1, HTLV-2, and HTLV-3 Proteases” (Life, 2021).
“Also recorded” adds a separate entry of the source. Read-outs that look alike come from different tables or passages of the source.

Columns and labels:
[1] = test system: HTLV-1 PR; test: Protease activity assay with oligopeptide substrates (RP-HPLC), HTLV-1 PR; assay type: biochemical, human T-cell leukemia virus type 1; conditions: substrate 0.05–1.10 mM, 2× buffer 0.5 M K3PO4, 4 M NaCl, 10 v/v% glycerol, 10 mM DTT, pH 5.6, 37 °C, 0.5–4 h
From the text: (§1) The oligopeptides representing the naturally occurring matrix/capsid (MA/CA), capsid/nucleocapsid (CA/NC), trans-frame protein/protease (TF1/PR), and PR/p1 cleavage sites of HTLV-1, -2, and -3 PRs were used as substrates. The oligopeptide substrates representing the natural sequences of HTLV PRs were ordered from BioBasic, while the oligopeptide substrates representing naturally occurring cleavage sites of various viruses, or the wild-type, the shortened, and the P4, P3, P2, P1, or P1′ variants of HTLV-1 MA/CA cleavage site (KTKVL*VVQPK) were in-house stocks. All peptides were dissolved in distilled water.
(§2) For kinetic measurements, we applied 10 µL 2× incubation buffer (0.5 M K3PO4, 4 M NaCl, 10 v/v% glycerol, 10 mM DTT, pH 5.6), 5 µL of HTLV-1, HTLV-2, or HTLV-3 PR (final concentration of the active enzyme was in 0.1–34.4 nM), and 0.5–5 µL oligopeptide substrate representing HTLV PR natural cleavage sites (0.05–1.10 mM final concentration). The final volume of the reaction mixture was set to 20 µL with distilled water if it was necessary. The reactions were initiated by the addition of the enzyme, were incubated at 37 °C for 0.5–4 h, and stopped by the addition of 180 µL 1 v/v% TFA. For substrates representing natural cleavage sites of retroviruses other than HTLV-1, -2, and -3 PRs (HIV-1, equine infectious anemia virus (EIAV), Rous sarcoma virus (RSV), mouse mammary tumor virus (MMTV), Mason-Pfizer monkey virus (MPMV), and murine leukemia virus (MuLV) and BLV) in a longer incubation time (24 h) was also applied. The cleavage products were separated by using a Nova-Pack C18 RP-HPLC column (3.9 mm × 150 mm, Waters Associates Inc, Milford, MA, USA) on HPLC (Merck-Hitachi LaChrom). Water-acetonitrile gradient (0–100%) was used for separation in the presence of 0.05% TFA at 2 mL/min flow rate. The kinetic parameters were determined by fitting the data—obtained at less than 20% substrate hydrolysis—to the Michaelis–Menten equation. The Gaussian equation was used to determine pH optimum and exponential growth equation for determination of optimal NaCl concentration, while linear regression was applied to plot the dependence of enzyme activity on temperature. Prism8 software (GraphPad Software Inc., San Diego, CA, USA) was used for evaluation. The kcat/KM catalytic constants were calculated based on the active enzyme concentration, which was determined by active site titration using the method described previously.

[2] = target: T1, HTLV-2 PR (Human T-cell leukemia virus 2, UniProt P03363); test: Protease activity assay with oligopeptide substrates (RP-HPLC), HTLV-2 PR; assay type: biochemical, human T-cell leukemia virus type 2; set-up: made in house; host or cells: E. coli BL21(DE3); conditions: pH 5.6, 37 °C
From the text: as §1, §2

[3] = target: T2, HTLV-3 PR (Human T-cell leukemia virus 3, UniProt Q4U0X6); test: Protease activity assay with oligopeptide substrates (RP-HPLC), HTLV-3 PR; assay type: biochemical, human T-cell leukemia virus type 3; set-up: made in house; host or cells: E. coli BL21(DE3), pET11a; conditions: pH 5.6, 37 °C
From the text: as §1, §2

[4] = test system: HTLV-1 PR; conditions: cleavage sites of viruses other than HTLV, retrieved from the literature, ref [28]; cited from earlier work
From the text: Table 2 Catalytic efficiencies of HTLV PRs on different substrates representing natural cleavage site sequences. Cleavage sites are labelled by asterisks within the sequences. Abbreviations: MA (matrix), CA (capsid), NC (nucleocapsid), and TF1 (trans-frame 1). | column: kcat/KM [mM^−1 s^−1] / HTLV-1 PR || Table 3 Catalytic efficiencies of HTLV PRs on different substrates representing natural cleavage site sequences of viruses other than HTLV. Cleavage sites are labelled by an asterisk within the sequences. Abbreviations: MA (matrix), CA (capsid), NC (nucleocapsid), TF (transframe), RT (reverse-transcriptase), and IN (integrase). | column: Substrate; kcat/KM (mM^−1 s^−1) / HTLV-1 PR ^1

[5] = test system: HIV-1 PR; conditions: cleavage sites of viruses other than HTLV, retrieved from the literature, ref [28]; cited from earlier work
From the text: Table 3 Catalytic efficiencies of HTLV PRs on different substrates representing natural cleavage site sequences of viruses other than HTLV. Cleavage sites are labelled by an asterisk within the sequences. Abbreviations: MA (matrix), CA (capsid), NC (nucleocapsid), TF (transframe), RT (reverse-transcriptase), and IN (integrase). | column: kcat/KM (mM^−1 s^−1) / HIV-1 PR ^1

[6] = target: T1, HTLV-2 PR; test: Inhibition study with HIV-1 PIs, HTLV-2 PR; assay type: biochemical, human T-cell leukemia virus type 2; set-up: made in house; host or cells: E. coli BL21(DE3); conditions: inhibitor 1 µM final, substrate HTLV-2 MA/CA 0.40–0.43 mM, DMSO control = 100%, n = 2
Method: The inhibitors were dissolved in DMSO.

[7] = target: T2, HTLV-3 PR; test: Inhibition study with HIV-1 PIs, HTLV-3 PR; assay type: biochemical; set-up: made in house; host or cells: E. coli BL21(DE3), pET11a; conditions: inhibitor 1 µM final, substrate HTLV-3 MA/CA 0.40–0.43 mM, DMSO control = 100%, n = 2
Method: The IB-268 (KTKVL-r-VVQPK) and IB-269 (APQVL-r-PVMHP) reduced peptide bond (-r-)-containing inhibitors, which were synthesized by Dr. Ivo Blaha (Ferring Leciva, Prague, Czech Republic).
The reaction mixtures were prepared to contain 4.8 µL of substrate (in 0.40–0.43 mM final concentration), 0.2 µL of inhibitor, 5 µL of the enzyme, and 10 µL of a 2× incubation buffer. The substrates representing HTLV-2 and HTLV-3 MA/CA cleavage sites were used for HTLV-2 and HTLV-3 PRs, respectively. In the case of HIV-1 PIs, we applied 100 µM inhibitor stocks, while 0.5–100 µM stocks of IB-268 and IB-269 were used for screening. The inhibitors were dissolved in DMSO. Therefore, 0.2 µL of DMSO was added to the control samples.

[8] = test system: HTLV-1 PR; conditions: ref [28], cited from earlier work; for activity of mutant (in words): HTLV-1 PR mutants, L57G with HTLV-1 CA/NC substrate (KTKVL*VVQPK); for self-processing: HTLV-1 PR, designed and characterized previously
From the text: Table 5 Effects of protease mutations on autoproteolytic activity of HTLV PRs. | column: Self-Processing || We prepared mutant HTLV-2 and HTLV-3 PRs, which contained mutations that were introduced previously to HTLV-1 PR to study its self-processing capability. The rationale behind the former mutation design was to prepare mutant HTLV-1 PRs that contain HIV-1-like residues in the flap region (57th and 59th) or at the active site (37th and 67th). The herein studied enzymes also contained the same mutations in the corresponding positions (Figure 10). All modified residue constitutes a part of substrate binding sites (Table 4).

[9] = natural HTLV cleavage sites, substrate 0.05–1.10 mM, 2× buffer 0.5 M K3PO4, 4 M NaCl, 10 v/v% glycerol, 10 mM DTT, 0.5–4 h
[10] = cleavage sites of viruses other than HTLV, longer incubation time (24 h) also applied

T2 sequence (Q4U0X6 431-553): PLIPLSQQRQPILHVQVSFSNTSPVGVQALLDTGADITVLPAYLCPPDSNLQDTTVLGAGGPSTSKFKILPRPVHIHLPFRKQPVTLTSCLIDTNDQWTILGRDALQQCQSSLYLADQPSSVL
T1 sequence (P03363 447-571): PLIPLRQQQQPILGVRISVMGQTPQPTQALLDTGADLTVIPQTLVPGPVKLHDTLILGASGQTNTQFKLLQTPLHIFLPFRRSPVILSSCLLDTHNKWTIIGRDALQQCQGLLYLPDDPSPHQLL

## PSKVL*PVLAP [HTLV-3 PR/P1, oligopeptide substrate PSKVL*PVLAP]
[1]
  kcat/KM: 7000 ± 2600 M⁻¹ s⁻¹
[2]; [9]
  kcat/KM: 2100 ± 300 M⁻¹ s⁻¹
[3]; [9]
  kcat/KM: 22600 ± 5800 M⁻¹ s⁻¹

## TTQCF*PILHP [HTLV-2 MA/CA, oligopeptide substrate TTQCF*PILHP]
[1]
  kcat/KM: 14400 ± 4300 M⁻¹ s⁻¹
[2]; [9]
  kcat/KM: 4300 ± 500 M⁻¹ s⁻¹
[3]; [9]
  kcat/KM: 37800 ± 20200 M⁻¹ s⁻¹

## PHQLL*PIATP [HTLV-2 PR/P1, oligopeptide substrate PHQLL*PIATP]
[1]
  kcat/KM: 10700 ± 4800 M⁻¹ s⁻¹
[2]; [9]
  kcat/KM: 92200 ± 41400 M⁻¹ s⁻¹
[3]; [9]
  kcat/KM: 7500 ± 2700 M⁻¹ s⁻¹

## SPRTIL*PLIP [HTLV-2 TF1/PR, oligopeptide substrate SPRTIL*PLIP]
[1]
  kcat/KM: 4900 ± 1100 M⁻¹ s⁻¹
[2]; [9]
  kcat/KM: 132500 ± 42500 M⁻¹ s⁻¹
[3]; [9]
  kcat/KM: 5000 ± 1100 M⁻¹ s⁻¹

## PRTIL*PVIPL [HTLV-3 TF1/PR, oligopeptide substrate PRTIL*PVIPL]
[1]
  kcat/KM: 109800 ± 29300 M⁻¹ s⁻¹

## ASQCL*PILHP [HTLV-3 MA/CA, oligopeptide substrate ASQCL*PILHP]
[1]
  kcat/KM: 40900 ± 10400 M⁻¹ s⁻¹
[2]; [9]
  kcat/KM: 2600 ± 400 M⁻¹ s⁻¹
[3]; [9]
  kcat/KM: 19700 ± 4400 M⁻¹ s⁻¹

## DELIL*PVKRK [MMTV P3/P8, oligopeptide substrate DELIL*PVKRK]
[4]
  kcat/KM: 2600 M⁻¹ s⁻¹
[5]
  kcat/KM: 1500 M⁻¹ s⁻¹
[2]; [10]
  kcat/KM: not cleaved
[3]; [10]
  kcat/KM: not cleaved

## CC(C)(C)NC(=O)[C@@H]1C[C@@H]2CCCC[C@@H]2CN1C[C@@H](O)[C@H](Cc1ccccc1)NC(=O)[C@H](CC(N)=O)NC(=O)c1ccc2ccccc2n1 [saquinavir]
[6]
  loss of activity: < 50%
[7]
  loss of activity: < 50%

## COC(=O)N[C@H](C(=O)N[C@@H](Cc1ccccc1)[C@@H](O)CN(Cc1ccc(-c2ccccn2)cc1)NC(=O)[C@@H](NC(=O)OC)C(C)(C)C)C(C)(C)C [atazanavir]
[6]
  loss of activity: < 50%
[7]
  loss of activity: < 50%

## TQTSLL*TLDDQ [MuLV NC/PR, oligopeptide substrate TQTSLL*TLDDQ]
[4]
  kcat/KM: not cleaved
[5]
  kcat/KM: not cleaved
[2]; [10]
  kcat/KM: not cleaved
[3]; [10]
  kcat/KM: not cleaved

## O=C1N(Cc2ccc(CO)cc2)[C@H](Cc2ccccc2)[C@H](O)[C@@H](O)[C@@H](Cc2ccccc2)N1Cc1ccc(CO)cc1 [DMP-323]
[6]
  loss of activity: < 50%
[7]
  loss of activity: < 50%

## KNKIL*MIQPK [HTLV-3 CA/NC, oligopeptide substrate KNKIL*MIQPK]
[1]
  kcat/KM: not cleaved

## KQPAIL*VHTPG [BLV CA/NC, oligopeptide substrate KQPAIL*VHTPG]
[4]
  kcat/KM: not cleaved
[5]
  kcat/KM: not cleaved
[2]; [10]
  kcat/KM: not cleaved
[3]; [10]
  kcat/KM: not cleaved

B1: HTLV-1 L57G (protein, UniProt P10274 450-574, looked up, variant L57G)
Protease: PVIPLDPARRPVIKAQVDTQTSHPKTIEALLDTGADMTVLPIALFSSNTPLKNTSVGGAGGQTQDHFKLTSLPVLIRLPFRTTPIVLTSCLVDTKNNWAIIGRDALQQCQGVLYLPEAKRPPVIL
modifications: Protease
[8]
  activity of mutant (in words): inefficient enzyme; also recorded: did not hydrolyze the CA/NC cleavage site peptide

B2: HTLV-1 A59I (protein, UniProt P10274 450-574, looked up, variant A59I)
Protease: PVIPLDPARRPVIKAQVDTQTSHPKTIEALLDTGADMTVLPIALFSSNTPLKNTSVLGIGGQTQDHFKLTSLPVLIRLPFRTTPIVLTSCLVDTKNNWAIIGRDALQQCQGVLYLPEAKRPPVIL
modifications: Protease
[8]
  activity of mutant (in words): undetectable activity

B3: HTLV-1 F67Q (protein, UniProt P10274 450-574, looked up, variant F67Q)
Protease: PVIPLDPARRPVIKAQVDTQTSHPKTIEALLDTGADMTVLPIALFSSNTPLKNTSVLGAGGQTQDHQKLTSLPVLIRLPFRTTPIVLTSCLVDTKNNWAIIGRDALQQCQGVLYLPEAKRPPVIL
modifications: Protease
[8]
  activity of mutant (in words): not tolerated
  self-processing: no

B4: HTLV-1 wild-type: wild-type HTLV-1 PR, self-processing studied previously (protein, UniProt P10274 450-574, looked up)
Protease: PVIPLDPARRPVIKAQVDTQTSHPKTIEALLDTGADMTVLPIALFSSNTPLKNTSVLGAGGQTQDHFKLTSLPVLIRLPFRTTPIVLTSCLVDTKNNWAIIGRDALQQCQGVLYLPEAKRPPVIL
modifications: Protease
notes: wild-type HTLV-1 PR, self-processing studied previously
[8]
  self-processing: yes

B5: HTLV-1 M37D (protein, UniProt P10274 450-574, looked up, variant M37D)
Protease: PVIPLDPARRPVIKAQVDTQTSHPKTIEALLDTGADDTVLPIALFSSNTPLKNTSVLGAGGQTQDHFKLTSLPVLIRLPFRTTPIVLTSCLVDTKNNWAIIGRDALQQCQGVLYLPEAKRPPVIL
modifications: Protease
[8]
  self-processing: no
